According to PubChem BioAssay (NCI):
Several values for one entry are separate records, joined by “and”; a condition that tells them apart may be missing. Identical values can stand only once.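 Cultured in 96-well plates, cells were exposed to test compound for 48 hours across five concentrations. At the GI50, growth is halved. Definition used: TGI = concentration required for complete inhibition of growth.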

What was measured:
Assay in all cases: inhibition of tumour cell growth, NCI panel, 48 h
SF-295 CNS = test system: SF-295 CNS
A549 NSCLC = test system: A549 NSCLC
NCI-H460 lung = test system: NCI-H460 lung
NCI-H226 lung = test system: NCI-H226 lung
SF-539 CNS = test system: SF-539 CNS
SK-OV-3 ovarian = test system: SK-OV-3 ovarian
EKVX NSCLC = test system: EKVX NSCLC
SK-MEL-28 melanoma = test system: SK-MEL-28 melanoma
KM12 colon = test system: KM12 colon
HOP-62 NSCLC = test system: HOP-62 NSCLC

| Structure (SMILES) | GI50 (SF-295 CNS) | TGI (SF-295 CNS) | GI50 (A549 NSCLC) | TGI (A549 NSCLC) | GI50 (NCI-H460 lung) | TGI (NCI-H460 lung) | GI50 (NCI-H226 lung) | TGI (NCI-H226 lung) | GI50 (SF-539 CNS) | TGI (SF-539 CNS) | GI50 (SK-OV-3 ovarian) | TGI (SK-OV-3 ovarian) | GI50 (EKVX NSCLC) | TGI (EKVX NSCLC) | GI50 (SK-MEL-28 melanoma) | TGI (SK-MEL-28 melanoma) | GI50 (KM12 colon) | TGI (KM12 colon) | GI50 (HOP-62 NSCLC) | TGI (HOP-62 NSCLC) |
| --- | --- | --- | --- | --- | --- | --- | --- | --- | --- | --- | --- | --- | --- | --- | --- | --- | --- | --- | --- | --- |
| C=C1CCC2C(C)(COC(=O)CC)C(OC(=O)CC)CCC2(C)C1C/C=C1/C(=O)OCC1OC(=O)CC (stereo unspecified) | 1.7 µM | 3.99 µM | 2.03 µM | 4.22 µM | 1.98 µM | 3.59 µM | 2.13 µM | 4.1 µM | 1.84 µM | 4.17 µM | 3.85 µM | 9.74 µM | 7.96 µM | 22.1 µM | 1.95 µM | 4.1 µM | 1.86 µM | 3.75 µM | 1.7 µM | 3.27 µM |
| COc1ccc(-c2c3c(n(C4OC(COC(C)=O)C(OC(C)=O)C(OC(C)=O)C4OC(C)=O)c(=S)c2C#N)CC(C)(C)CC3=O)cc1 (stereo unspecified) | – | > 100 µM | – | > 100 µM | – | > 100 µM | – | > 100 µM | – | 58.6 µM and > 100 µM | – | > 100 µM | – | 97.5 µM | 42 µM and > 100 µM | > 100 µM | – | > 100 µM | – | > 100 µM |
| COC(=O)C(Cc1nc2ccccc2[nH]c1=O)C(=O)C(=O)Nc1ccc([N+](=O)[O-])cc1[N+](=O)[O-] (stereo unspecified) | – | 49.9 µM | – | > 100 µM | – | 49.2 µM | – | 32.1 µM | – | 38.5 µM | – | 64.6 µM | – | 51.2 µM | – | 40.1 µM | – | 30.1 µM | – | 45.4 µM |
| CCn1c(-c2cc3ccccc3cc2O)nn(C(=O)c2c(Cl)cccc2Cl)c1=S | 34.6 µM | > 50 µM | > 50 µM | > 50 µM | > 50 µM | > 50 µM | 14.2 µM | 40.2 µM | > 50 µM | > 50 µM | 15.4 µM | 40 µM | > 50 µM | > 50 µM | > 50 µM | > 50 µM | > 50 µM | > 50 µM | 24.2 µM | > 50 µM |
| CC[N+]1(C)CCC(O)(c2ccc(OC)cc2)C(C(=O)c2ccc(OC)cc2)C1 (stereo unspecified) | – | 38.9 µM | – | 41.3 µM | – | 45 µM | – | 34.4 µM | – | 32 µM | – | 33.7 µM | – | 41.6 µM | – | 29.3 µM | – | 31.2 µM | – | 34.1 µM |
| CCc1cc(CCC(=O)Nc2c(C)cccc2C)[nH]n1 | – | > 100 µM | – | > 100 µM | – | > 100 µM | – | > 100 µM | – | > 100 µM | – | > 100 µM | – | > 100 µM | – | > 100 µM | – | > 100 µM | – | > 100 µM |
| O=Cc1cccc2c1Oc1c(cccc1C(=O)O)S2 | – | > 100 µM | – | > 100 µM | – | > 100 µM | – | > 100 µM | – | > 100 µM | – | > 100 µM | – | > 100 µM | – | > 100 µM | – | 44.3 µM | – | > 100 µM |
| COc1ccc(C2SCC(=O)N2NC(=O)c2ccc(NC(C)=O)cc2)cc1 (stereo unspecified) | – | > 100 µM | – | > 100 µM | – | > 100 µM | – | > 100 µM | – | > 100 µM | – | > 100 µM | – | > 100 µM | – | > 100 µM | – | > 100 µM | – | > 100 µM |
| COc1cccc(C2c3cc4c(cc3OC(N3CCCC3)C2C)OCO4)c1O (stereo unspecified) | – | 15.4 µM | – | > 67.1 µM | – | 32.4 µM | – | 35.6 µM | – | 10.6 µM | – | 35.2 µM | – | > 84.9 µM | – | 81.1 µM | – | 19.8 µM | – | 45.7 µM |
| CN1C(=O)C(=O)c2cc3c(c4c2c1cc1ccccc14)OCO3 | – | > 100 µM | – | > 100 µM | – | > 100 µM | – | 73.3 µM | – | > 100 µM | – | > 100 µM | – | > 100 µM | – | > 100 µM | – | 58.9 µM | – | > 100 µM |
| Cn1c2ccc(Br)cc2c2c3c(c4c5ccccc5[nH]c4c21)C(=O)N(O)C3=O | 0.223 µM | 0.633 µM | 0.63 µM | 2.49 µM | 0.04 µM | 0.182 µM | 1.06 µM | 2.92 µM | 0.073 µM | 0.217 µM | 0.265 µM | 0.773 µM | 0.232 µM | 0.896 µM | 0.212 µM | 0.498 µM | 0.237 µM | 0.902 µM | 0.131 µM | 0.653 µM |
| Cc1cccc(C)c1NC(=O)Nc1ccc(S(N)(=O)=O)cc1 | – | > 100 µM | – | > 100 µM | – | > 100 µM | – | > 100 µM | – | > 100 µM | – | > 100 µM | – | > 100 µM | – | > 100 µM | – | > 100 µM | – | > 100 µM |
